In patent publication US11905277B1, “2-alkyloxy-6-(2-oxo-2H-1-benzopyran-3-yl)-4-phenylpyridine-3-carbonitrile as an antimicrobial compound” (KING FAISAL UNIVERSITY, priority 2023, dated 2024):

Columns and labels:
Escherichia coli = experiment: Agar plate disc-diffusion, antibacterial activity (inhibition zone); assay type: cell-based; settings: nutrient agar, 37° C., 48 h, DMSO zone subtracted
Procedure: (§1) The agar plate disc-diffusion method was applied. Sterilized filter papers (6 mm in diameter) were wetted with 10 μL of a solution of 2-ethoxy-6-(2-oxo-2H-1-benzopyran-3-yl)-4-phenylpyridine-3-carbonitrile (1) and 2-methoxy-6-(2-oxo-2H-1-benzopyran-3-yl)-4-phenylpyridine-3-carbonitrile (2) to be tested, containing […], and the discs were allowed to air dry. The discs were then placed onto the surface of agar plates (nutrient agar for bacteria and Sabouraud's dextrose agar for fungi) seeded with the test organism. Each plate contained 15 mL of the agar medium, previously seeded with 0.2 mL of the broth culture of each organism pregrown for 18 hours. The plates were incubated at 37° C. for 48 h, and 72 h for fungi. The inhibition zones were measured in mm. Discs impregnated with DMSO were used as a control, and its inhibition zone was subtracted from the tested compound actual inhibition zone.

Pseudomonas aeruginosa = experiment: as above; assay type: cell-based; settings: nutrient agar, 37° C., 48 h, DMSO zone subtracted
Procedure: as §1

Bacillus cereus = experiment: as above; assay type: cell-based; settings: nutrient agar, 37° C., 48 h, DMSO zone subtracted
Procedure: as §1

Staphylococcus aureus = experiment: as above; assay type: cell-based; settings: nutrient agar, 37° C., 48 h, DMSO zone subtracted
Procedure: as §1

different microbes = experiment: Antimicrobial testing, overall statement on Tables 1 and 2; assay type: cell-based; settings: summary of Tables 1 and 2; bacteria and fungi tested
Procedure: as §1
Their antibacterial activity was screened against gram positive bacteria namely Bacillus cereus and Staphylococcus aureus and gram-negative bacterial strains namely Pseudomonas aeruginosa and Escherichia coli, while their antifungal activity was screened against Aspergillus flavus and Chrysosporium keratinophilum.

Aspergillus flavus = experiment: Agar plate disc-diffusion, antifungal activity (inhibition zone); assay type: cell-based; settings: Sabouraud's dextrose agar, 72 h, DMSO zone subtracted
Procedure: as §1

[1] = test system: Chrysosporium keratinophilum; experiment: as above; assay type: cell-based; settings: Sabouraud's dextrose agar, 72 h, DMSO zone subtracted
Procedure: as §1

[2] = A = concentration of comp. = 10,000 μL
[3] = B = concentration of comp. = 30.000 μL
[4] = C = concentration of comp. = 50,000 μL

Row | Compound | inhibition zone (Escherichia coli; [2]) | inhibition zone (Escherichia coli; [3]) | inhibition zone (Escherichia coli; [4]) | inhibition zone (Pseudomonas aeruginosa; [2]) | inhibition zone (Pseudomonas aeruginosa; [3]) | inhibition zone (Pseudomonas aeruginosa; [4]) | inhibition zone (Bacillus cereus; [2]) | inhibition zone (Bacillus cereus; [3]) | inhibition zone (Bacillus cereus; [4]) | inhibition zone (Staphylococcus aureus; [2]) | inhibition zone (Staphylococcus aureus; [3]) | inhibition zone (Staphylococcus aureus; [4]) | melting point | antimicrobial activity (in words) (different microbes) | inhibition zone (Aspergillus flavus; [2]) | inhibition zone (Aspergillus flavus; [3]) | inhibition zone (Aspergillus flavus; [4]) | inhibition zone [1, 2] | inhibition zone [1, 3] | inhibition zone [1, 4]
1 | COc1nc(-c2cc3ccccc3oc2=O)cc(-c2ccccc2)c1C#N [Compound 2, 2-methoxy-6-(2-oxo-2H-1-benzopyran-3-yl)-4-phenylpyridine-3-carbonitrile] | 37 mm | 43 mm | 49 mm | 25 mm | 34 mm | 41 mm | 33 mm | 38 mm | 44 mm | 15 mm | 22 mm | 25 mm | 149 to 150 °C | high antimicrobial activities | 17 mm | 21 mm | 29 mm | 31 mm | 39 mm | 47 mm
2 | CCOc1nc(-c2cc3ccccc3oc2=O)cc(-c2ccccc2)c1C#N [Compound 1, 2-ethoxy-6-(2-oxo-2H-1-benzopyran-3-yl)-4-phenylpyridine-3-carbonitrile] | 38 mm | 43 mm | 48 mm | 25 mm | 32 mm | 40 mm | 31 mm | 36 mm | 43 mm | 11 mm | 19 mm | 21 mm | – | high antimicrobial activities | 29 mm | 33 mm | 41 mm | 22 mm | 31 mm | 37 mm
3 | O=C(O)c1cn(C2CC2)c2cc(N3CCNCC3)c(F)cc2c1=O [Cip., reference compound] | 30 mm | 39 mm | 60 mm | 29 mm | 30 mm | 53 mm | 29 mm | 30 mm | 42 mm | 43 mm | 44 mm | 53 mm | – | – | 29 mm | 30 mm | 42 mm | 29 mm | 30 mm | 53 mm
